Consider two molecules from patent US9915647B2 (priority 2011, dated 2018).

Assay [1] concerns V79-G3 cells. The format is cell-based, Chinese hamster.
Assay [2] has as its system HEK293 cells. The format is cell-based, human.

In the case of `Nc1ncnc2c1ncn2[C@@H]1O[C@H](COP(=O)(O)OP(=O)(O)O)[C@@H](O)[C@H]1O` [ADP, adenosine diphosphate], the “increase in respiration over the basal level” value in assay [1] was around 20%.

`C=C(C)[C@H]1Cc2c(ccc3c2O[C@@H]2COc4cc(OC)c(OC)cc4[C@@H]2C3=O)O1` [rotenone]: in assay [1], the “rotenone sensitivity of glutamate+malate-supported respiration” value is given as “sensitive to rotenone”. The “inhibition of ADP-stimulated respiration” value in assay [2] is listed as “dose-dependently”.
